Experimental findings from patent US20090197856A1, “ANTIVIRAL COMPOUNDS” (Genelabs Technologies, Inc., priority 2007, published 2009) are described below.

For orientation: IC50 means the midpoint of a concentration-inhibition curve. Lower therefore signals inhibition by little substance.

For the assay, the target named is T1, NS5B (Hepatitis C virus genotype 1b, UniProt Q9WMX2).
T1 construct: 3 nM NS5B, 20 nM polyC RNA template
T1 sequence (Q9WMX2 2420-3010): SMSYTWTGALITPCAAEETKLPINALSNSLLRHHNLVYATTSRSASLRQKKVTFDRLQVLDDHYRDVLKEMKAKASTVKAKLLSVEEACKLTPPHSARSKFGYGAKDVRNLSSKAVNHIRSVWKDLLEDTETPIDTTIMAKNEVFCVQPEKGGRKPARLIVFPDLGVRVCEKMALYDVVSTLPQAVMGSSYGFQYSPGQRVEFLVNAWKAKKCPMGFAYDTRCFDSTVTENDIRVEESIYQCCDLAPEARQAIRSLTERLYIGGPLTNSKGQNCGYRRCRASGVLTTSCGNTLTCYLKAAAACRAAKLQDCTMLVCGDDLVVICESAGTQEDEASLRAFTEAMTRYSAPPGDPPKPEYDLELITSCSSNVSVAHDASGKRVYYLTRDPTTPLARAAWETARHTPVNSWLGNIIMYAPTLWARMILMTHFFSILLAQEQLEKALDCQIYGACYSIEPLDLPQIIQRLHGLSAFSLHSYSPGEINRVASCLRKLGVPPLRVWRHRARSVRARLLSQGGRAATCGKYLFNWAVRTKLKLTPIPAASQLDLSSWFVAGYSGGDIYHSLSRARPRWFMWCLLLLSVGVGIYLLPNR
Description: Polymerase assay, incorporation of radiolabeled GTP with biotinylated oligoG13 primer and polycytidylic acid RNA template. The format is biochemical. The following applies: polyC RNA template, biotin-oligoG13 primer, tritiated GTP, 3 nM NS5B, 30° C., 2 hours. On the procedure: The polymerase activity was also assayed by measuring incorporation of radiolabeled GTP into an RNA product using a biotinylated oligoG13 primer with a polycytidylic acid RNA template. Typically, the assay mixture (40 μL) contains 50 mM HEPES (pH 7.3), 2.5 mM magnesium acetate, 2 mM sodium chloride, 37.5 mM potassium acetate, 5 mM DTT, 0.4 U/mL RNasin, 2.5% glycerol, 3 nM NS5B, 20 nM polyC RNA template, 20 nM biotin-oligoG13 primer, and 0.2 μM tritiated guanosine triphosphate. Test compounds were initially dissolved and diluted in 100% DMSO and further diluted into aqueous buffer, producing a final concentration of 5% DMSO. Typically, compounds were tested at concentrations between 0.2 nM and 10 μM. Reactions were started with addition of tritiated guanosine triphosphate and allowed to continue at 30° C. for 2 hours. Reactions were quenched with 100 μL stop buffer containing 10 mM EDTA and 1 μg/mL streptavidin-coated scintillation proximity beads. Reaction plates were incubated at 4° C. for 10 hours and then incorporation of radioactivity was determined by scintillation counting. The table below lists the IC50 values of compounds determined using this procedure.
On to `N[C@H]1CCN2CCn3c(c(C4CCCCC4)c4ccc(C(=O)O)cc43)-c3cccc1c32` [Compound 275], for which the IC50 came to 10.1 nM.
`CC(C)CNC1CCN2CCn3c(c(C4CCCCC4)c4ccc(C(=O)O)cc43)-c3cccc1c32` (centres unmarked) [Compound 278] registered an IC50 of 2.57 nM.
The compound `O=C(O)c1ccc2c(C3CCCCC3)c3n(c2c1)CCN1CCC(NC2CCC2)c2cccc-3c21` (centres unmarked) [Compound 279] displayed an IC50 of 4.02 nM.
The figure for `COCCNC1CCN2CCn3c(c(C4CCCCC4)c4ccc(C(=O)O)cc43)-c3cccc1c32` (centres unmarked) [Compound 283] is 4.3 nM; for `NCCNC1CCN2CCn3c(c(C4CCCCC4)c4ccc(C(=O)O)cc43)-c3cccc1c32` (centres unmarked) [Compound 284] it is 6.22 nM; for `CCN(CC)C1CCN2CCn3c(c(C4CCCCC4)c4ccc(C(=O)O)cc43)-c3cccc1c32` (centres unmarked) [Compound 286] it is 4.33 nM.
Under `O=C(O)c1ccc2c(C3CCCCC3)c3n(c2c1)CCN1CCC(N2CCCC2)c2cccc-3c21` (centres unmarked) [Compound 287, 15-Cyclohexyl-4-pyrrolidin-1-yl-5,6,8,9-tetrahydro-4H-indolo[1′,2′:4,5][1,4]diazepino[6,7,1-ij]quinoline-12-carboxylic acid] stands 2.71 nM; under `O=C(O)c1ccc2c(C3CCCCC3)c3n(c2c1)CCN1CCC(N2CCCCC2)c2cccc-3c21` (centres unmarked) [Compound 288], 1.8 nM; under `O=C(O)c1ccc2c(C3CCCCC3)c3n(c2c1)CCN1CCC(N2CCOCC2)c2cccc-3c21` (centres unmarked) [Compound 289], 2.03 nM.
Under `CCN(CC)[C@@H]1CCN2CCn3c(c(C4CCCCC4)c4ccc(C(=O)O)cc43)-c3cccc1c32` [Compound 290] stands 1.62 nM; under `CCCN[C@@H]1CCN2CCn3c(c(C4CCCCC4)c4ccc(C(=O)O)cc43)-c3cccc1c32` [Compound 291], 1.94 nM.
As to `CC(C)N[C@@H]1CCN2CCn3c(c(C4CCCCC4)c4ccc(C(=O)O)cc43)-c3cccc1c32` [Compound 292, (4R)-15-cyclohexyl-4-(isopropylamino)-5,6,8,9-tetrahydro-4H-indolo[1′,2′:4,5][1,4]diazepino[6,7,1-ij]quinoline-12-carboxylic acid], the IC50 worked out at 2.02 nM.
For `CC(=O)N[C@@H]1CCN2CCn3c(c(C4CCCCC4)c4ccc(C(=O)O)cc43)-c3cccc1c32` [Compound 293, (4R)-4-Acetamido-15-cyclohexyl-5,6,8,9-tetrahydro-4H-indolo[1′,2′:4,5][1,4]diazepino[6,7,1-ij]quinoline-12-carboxylic acid], the IC50 stood at 1.71 nM.
The figure for `CC(C)(C)OC(=O)N[C@@H]1CCN2CCn3c(c(C4CCCCC4)c4ccc(C(=O)O)cc43)-c3cccc1c32` [Compound 294] is 1.55 nM; for `CC(C)(C)OC(=O)N[C@H]1CCN2CCn3c(c(C4CCCCC4)c4ccc(C(=O)O)cc43)-c3cccc1c32` [Compound 295, (4S)-4-[(tert-butoxycarbonyl)amino]-15-cyclohexyl-5,6,8,9-tetrahydro-4H-indolo[1′,2′:4,5][1,4]diazepino[6,7,1-ij]quinoline-12-carboxylic acid] it is 8.47 nM; for `CC(C)(C)NC(=O)N[C@@H]1CCN2CCn3c(c(C4CCCCC4)c4ccc(C(=O)O)cc43)-c3cccc1c32` [Compound 296, (4R)-4-[(tert-Butylcarbamoyl)amino]-15-cyclohexyl-5,6,8,9-tetrahydro-4H-indolo[1′,2′:4,5][1,4]diazepino[6,7,1-ij]quinoline-12-carboxylic acid] it is 1.01 nM.
Under `O=C(NCCN1CCCC1)N[C@@H]1CCN2CCn3c(c(C4CCCCC4)c4ccc(C(=O)O)cc43)-c3cccc1c32` [Compound 297] stands 1.67 nM; under `N[C@@H]1CCN2CCn3c(c(C4CCCCC4)c4ccc(C(=O)NC5CC5)cc43)-c3cccc1c32` [Compound 298, (4R)-4-amino-15-cyclohexyl-N-cyclopropyl-5,6,8,9-tetrahydro-4H-indolo[1′,2′:4,5][1,4]diazepino[6,7,1-ij]quinoline-12-carboxamide], 7.17 nM; under `CN(C)S(=O)(=O)NC(=O)c1ccc2c(C3CCCCC3)c3n(c2c1)CCN1CC[C@@H](N)c2cccc-3c21` [Compound 299, (4R)-4-amino-15-cyclohexyl-N-[(dimethylamino)sulfonyl]-5,6,8,9-tetrahydro-4H-indolo[1′,2′:4,5][1,4]diazepino[6,7,1-ij]quinoline-12-carboxamide], 1 nM.
Under `CC(C)N1CCC[C@H]1C(=O)N[C@@H]1CCN2CCn3c(c(C4CCCCC4)c4ccc(C(=O)O)cc43)-c3cccc1c32` [Compound 300, (4R)-15-cyclohexyl-4-[(1-isopropyl-L-prolyl)amino]-5,6,8,9-tetrahydro-4H-indolo[1′,2′:4,5][1,4]diazepino[6,7,1-ij]quinoline-12-carboxylic acid] stands 0.769 nM; under `NCCC1CCN2CCn3c(c(C4CCCCC4)c4ccc(C(=O)O)cc43)-c3cccc1c32` (centres unmarked) [Compound 301, 4-(2-aminoethyl)-15-cyclohexyl-5,6,8,9-tetrahydro-4H-indolo[1′,2′:4,5][1,4]diazepino[6,7,1-ij]quinoline-12-carboxylic acid], 3.35 nM; under `NCC[C@H]1CCN2CCn3c(c(C4CCCCC4)c4ccc(C(=O)O)cc43)-c3cccc1c32` [Compound 303], 6.81 nM.
`O=C(O)c1ccc2c(C3CCCCC3)c3n(c2c1)CCCn1cc(CNS(=O)(=O)C2CC2)c2cccc-3c21` [Compound 304, 12-Cyclohexyl-1-{[(cyclopropylsulfonyl)amino]methyl}-5,6-dihydro-4H-[1,5]diazocino[1,2-a:5,4,3-h′i′]diindole-9-carboxylic acid] showed an IC50 of 9 nM. The IC50 values of the last two compounds are within 1.5-fold of each other.
The figure for `CCN(CC)Cc1c(C(=O)N(C)C)n2c3c(cccc13)-c1c(C3CCCCC3)c3ccc(C(=O)O)cc3n1CCC2` [Compound 306] is 8 nM.
As for `CN(C)C(=O)c1c(CN2CCCCC2)c2cccc3c2n1CCCn1c-3c(C2CCCCC2)c2ccc(C(=O)O)cc21` [Compound 307], inhibition was half-maximal at 4 nM (IC50).
In turn, `CN(C)C(=O)c1c(CNC2CCOCC2)c2cccc3c2n1CCCn1c-3c(C2CCCCC2)c2ccc(C(=O)O)cc21` [Compound 308] returned an IC50 of 7 nM.
`CN(C)C(=O)c1c(CN2CCCC2)c2cccc3c2n1CCCn1c-3c(C2CCCCC2)c2ccc(C(=O)O)cc21` [Compound 309] had an IC50 of 6 nM.
`CN(C)C(=O)c1c(CNS(=O)(=O)C2CC2)c2cccc3c2n1CCCn1c-3c(C2CCCCC2)c2ccc(C(=O)O)cc21` [Compound 310]: half-maximal inhibition (IC50) was put at 6 nM.
Regarding `CN(C)C(=O)c1c(CN2CCOCC2)c2cccc3c2n1CCCn1c-3c(C2CCCCC2)c2ccc(C(=O)O)cc21` [Compound 311], the IC50 was 5 nM.
The figure for `CCN(C)Cc1c(C(=O)N(C)C)n2c3c(cccc13)-c1c(C3CCCCC3)c3ccc(C(=O)O)cc3n1CC2` [Compound 312] is 4 nM; for `CC(C)N1CCCC[C@H]1C(=O)N(C)Cc1c(C(=O)N(C)C)n2c3c(cccc13)-c1c(C3CCCCC3)c3ccc(C(=O)O)cc3n1CCC2` [Compound 313] it is 2 nM.
The figure for `CN(C)C(=O)c1c(CN(C)C(=O)C(C)(C)N2CCCC2)c2cccc3c2n1CCCn1c-3c(C2CCCCC2)c2ccc(C(=O)O)cc21` [Compound 314] is 11 nM.
The figure for `CCN(C)Cc1c(C(=O)N(C)C)n2c3c(cccc13)-c1c(C3CCCCC3)c3ccc(C(=O)NS(=O)(=O)N(C)C)cc3n1CCC2` [Compound 315] is 2 nM.
As for `CCN(C)Cc1c(C(=O)N(C)C)n2c3c(cccc13)-c1c(C3CCCCC3)c3ccc(C(=O)NS(=O)(=O)C4CC4)cc3n1CCC2` [Compound 316], the IC50 is 5 nM.
Under `CCN(C)Cc1c(C(=O)N(CC)CC)n2c3c(cccc13)-c1c(C3CCCCC3)c3ccc(C(=O)O)cc3n1CCC2` [Compound 317] stands 5 nM; under `CCN(C)Cc1c(C(=O)N2CCN(S(C)(=O)=O)CC2)n2c3c(cccc13)-c1c(C3CCCCC3)c3ccc(C(=O)O)cc3n1CCC2` [Compound 318], 9 nM.
Under `CCN(C)Cc1c(C(=O)NC2CC2)n2c3c(cccc13)-c1c(C3CCCCC3)c3ccc(C(=O)O)cc3n1CCC2` [Compound 319] stands 11 nM; under `CCN(C)Cc1c(C(=O)N2CCCC2)n2c3c(cccc13)-c1c(C3CCCCC3)c3ccc(C(=O)O)cc3n1CCC2` [Compound 320], 3 nM; under `CCN(C)Cc1c(C(=O)NS(=O)(=O)N(C)C)n2c3c(cccc13)-c1c(C3CCCCC3)c3ccc(C(=O)O)cc3n1CCC2` [Compound 321], 8 nM.
Compound `CCN(C)Cc1c(C(=O)NS(=O)(=O)C2CC2)n2c3c(cccc13)-c1c(C3CCCCC3)c3ccc(C(=O)O)cc3n1CCC2` [Compound 322] returned an IC50 of 9 nM.
The figure for `CCN(C)Cc1c(C(=O)N(C)Cc2ccccc2)n2c3c(cccc13)-c1c(C3CCCCC3)c3ccc(C(=O)O)cc3n1CCC2` [Compound 323] is 9 nM.
Under `CCN(C)Cc1c(C(=O)N2CCC(N(C)C)CC2)n2c3c(cccc13)-c1c(C3CCCCC3)c3ccc(C(=O)O)cc3n1CCC2` [Compound 324] stands 6 nM; under `CCN(C)Cc1c(C(=O)N2CCN(C(C)=O)CC2)n2c3c(cccc13)-c1c(C3CCCCC3)c3ccc(C(=O)O)cc3n1CCC2` [Compound 325], 7 nM; under `CCN(C)Cc1c(C(=O)N2CC[C@@H](NC(C)=O)C2)n2c3c(cccc13)-c1c(C3CCCCC3)c3ccc(C(=O)O)cc3n1CCC2` [Compound 326], 6 nM.
